The subject of assay [1] is Asparagine synthetase B (Escherichia coli). Put plainly: Competitive Inhibition constant of Asparagine synthetase of Glutamine-Dependent Synthetase Activity using aspartate as substrate.
The test system is the same in assay [2]. Put plainly: Uncompetitive Inhibition constant of Asparagine synthetase of Glutamine-Dependent Synthetase Activity using glutamine as substrate.
Assay [3] shares this test system. Put plainly: Noncompetitive Inhibition constant of Asparagine synthetase of Glutamine-Dependent Synthetase Activity using ATP as substrate.
Assay [4] has the same test system. Put plainly: Non competitive Inhibition constant of Asparagine synthetase of Glutamine-Dependent Synthetase Activity using glutamine as substrate.
Assay [5] shares this test system. Put plainly: Non competitive Inhibition constant of Asparagine synthetase of Glutamine-Dependent Synthetase Activity using ATP as substrate.
Assay [6] shares this test system. Put plainly: Noncompetitive Inhibition constant of Asparagine synthetase of Glutamine-Dependent Synthetase Activity using glutamine as substrate.
The test system is the same in assay [7]. Put plainly: Noncompetitive Inhibition constant of Asparagine synthetase of Glutamine-Dependent Synthetase Activity using aspartate as substrate.

Regarding `O=C(O)[C@H]1NCC[C@H]1C(=O)O`, the Kis in assay [1] and in assay [3] was 2.65 mM each time. Besides, the Kii worked out at 2.57 mM in assay [2] and 4.8 mM in assay [3].
With `C[C@@H](C(=O)O)[C@H](N)C(=O)O` (single isomer, unassigned), the figures for the Kis in assay [1], in assay [4] and in assay [5] were 0.25 mM, 1.62 mM and 0.45 mM, respectively. In addition, the Kii came to 1.71 mM in assay [4] and 3.28 mM in assay [5].
Consider `C[C@H](C(=O)O)[C@H](N)C(=O)O`, for which the Kii in assay [6] is 16.5 mM; in assay [3], 15 mM; in assay [7] it was > 50 mM. Further, the Kis in assay [6] was determined as 93 mM; in assay [3] it was 8 mM; in assay [7], 18 mM.

The record behind these values is ChEMBL document CHEMBL1129339, “Mapping the aspartic acid binding site of Escherichia coli asparagine synthetase B using substrate analogs” (J Med Chem, 1996).
